The assay deals with T1, PD-1/PD-L1 (Homo sapiens, UniProt Q9NZQ7).
T1 construct: TVMV protease site linker (C); made in house; host or cells: HEK293T cells
T1 sequence (Q9NZQ7 18-239): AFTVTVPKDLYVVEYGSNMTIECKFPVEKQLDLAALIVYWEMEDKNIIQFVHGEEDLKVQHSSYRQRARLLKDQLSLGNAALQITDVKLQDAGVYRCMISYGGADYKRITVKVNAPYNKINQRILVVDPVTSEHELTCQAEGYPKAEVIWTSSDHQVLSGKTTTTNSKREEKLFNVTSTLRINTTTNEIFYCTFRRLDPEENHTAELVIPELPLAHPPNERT
In words: PD-1/PD-L1 Homogenous Time-Resolved Fluorescence (HTRF) binding assay. The conditions noted are these: PD-L1-His 10 nM, PD-1-Ig 20 nM. The source says:
The ability of the compounds of the invention to bind to PD-L1 was investigated using a PD-1/PD-L1 Homogenous Time-Resolved Fluorescence (HTRF) binding assay.
Homogenous Time-Resolved Fluorescence (HTRF) binding assay.
The interaction of PD-1 and PD-L1 can be assessed using soluble, purified preparations of the extracellular domains of the two proteins. The PD-1 and PD-L1 protein extracellular domains were expressed as fusion proteins with detection tags, for PD-1, the tag was the Fc portion of Immunoglobulin (PD-1-Ig) and for PD-L1 it was the 6 histidine motif (PD-L1-His). All binding studies were performed in an HTRF assay buffer consisting of dPBS supplemented with 0.1% […] bovine serum albumin and 0.05% (v/v) Tween-20. For the h/PD-L1-His binding assay, inhibitors were pre-incubated with PD-L1-His (10 nM final) for 15 m in 4 μl of assay buffer, followed by addition of PD-1-Ig (20 nM final) in 1 μl of assay buffer and further incubation for 15 m. HTRF detection was achieved using europium crypate-labeled anti-Ig (1 nM final) and allophycocyanin (APC) labeled anti-His (20 nM final). Antibodies were diluted in HTRF detection buffer and 5 μl was dispensed on top of the binding reaction. […] Additional binding assays were established between the human proteins PD-1-Ig/PD-L2-His (20 & 5 nM, respectively) and CD80-His/PD-L1-Ig (100 & 10 nM, respectively). […]
`CC(=O)NC1CCN(CCCOc2cccc(-c3cccc(COc4cc(OCc5cncc(C#N)c5)c(CN(C)C(C)c5nnn[nH]5)cc4Cl)c3C)c2C)CC1` (stereo not drawn) [Example 1040, N-(1-(3-((3′-((4-(((1-(1H-Tetrazol-5-yl)ethyl)(methyl)amino)methyl)-2-chloro-5-((5-cyanopyridin-3-yl)methoxy)phenoxy)methyl)-2,2′-dimethyl-[1,1′-biphenyl]-3-yl)oxy)-propyl)piperidin-4-yl)acetamide] showed an IC50 of 2.3 nM.
As for `CC(=O)NC1CCN(CCCOc2cccc(-c3cccc(COc4cc(OCc5cncc(C#N)c5)c(CN5CCCC(c6nnn[nH]6)C5)cc4Cl)c3C)c2C)CC1` (stereo not drawn) [Example 1041, N-(1-(3-((3′-((4-((3-(1H-Tetrazol-5-yl)piperidin-1-yl)methyl)-2-chloro-5-((5-cyano-pyridin-3-yl)methoxy)phenoxy)methyl)-2,2′-dimethyl-[1,1′-biphenyl]-3-yl)oxy)propyl)-piperidin-4-yl)acetamide], the figure is 0.5 nM; as for `CC(=O)NC1CCN(CCCOc2cccc(-c3cccc(COc4cc(OCc5cncc(C#N)c5)c(CN5CCC(c6nnn[nH]6)C5)cc4Cl)c3C)c2C)CC1` (stereo not drawn) [Example 1042, N-(1-(3-((3′-((4-((3-(1H-Tetrazol-5-yl)pyrrolidin-1-yl)methyl)-2-chloro-5-((5-cyano-pyridin-3-yl)methoxy)phenoxy)methyl)-2,2′-dimethyl-[1,1′-biphenyl]-3-yl)oxy)propyl)-piperidin-4-yl)acetamide], 0.2 nM; as for `CC(=O)NC1CCN(CCCOc2cccc(-c3cccc(COc4cc(OCc5cncc(C#N)c5)c(CNC(C)c5nnn[nH]5)cc4Cl)c3C)c2C)CC1` (stereo not drawn) [Example 1043, N-(1-(3-((3′-((4-(((1-(1H-Tetrazol-5-yl)ethyl)amino)methyl)-2-chloro-5-((5-cyanopyridin-3-yl)methoxy)phenoxy)methyl)-2,2′-dimethyl-[1,1′-biphenyl]-3-yl)oxy)propyl)piperidin-4-yl)acetamide], 3.1 nM.
As for `CC(=O)NC1CCN(CCCOc2cccc(-c3cccc(COc4cc(OCc5cncc(C#N)c5)c(CN(C)Cc5nnn[nH]5)cc4Cl)c3C)c2C)CC1` [Example 1044, N-(1-(3-((3′-((4-((((1H-Tetrazol-5-yl)methyl)(methyl)amino)methyl)-2-chloro-5-((5-cyanopyridin-3-yl)methoxy)phenoxy)methyl)-2,2′-dimethyl-[1,1′-biphenyl]-3-yl)oxy)-propyl)piperidin-4-yl)acetamide], the figure is 0.5 nM; as for `CC(=O)NC1CCN(CCCOc2cccc(-c3cccc(COc4cc(OCc5cncc(C#N)c5)c(CN5CCCCC5c5ncc[nH]5)cc4Cl)c3C)c2C)CC1` (stereo not drawn) [Example 1045, N-(1-(3-((3′-((4-((2-(1H-Imidazol-2-yl)piperidin-1-yl)methyl)-2-chloro-5-((5-cyano-pyridin-3-yl)methoxy)phenoxy)methyl)-2,2′-dimethyl-[1,1′-biphenyl]-3-yl)oxy)propyl)-piperidin-4-yl)acetamide], 3.8 nM; as for `CC(=O)NC1CCN(CCCOc2cccc(-c3cccc(COc4cc(OCc5cncc(C#N)c5)c(CNCc5nnn[nH]5)cc4Cl)c3C)c2C)CC1` [Example 1046, N-(1-(3-((3′-((4-((((1H-Tetrazol-5-yl)methyl)amino)methyl)-2-chloro-5-((5-cyanopyridin-3-yl)methoxy)phenoxy)methyl)-2,2′-dimethyl-[1,1′-biphenyl]-3-yl)oxy)propyl)piperidin-4-yl)acetamide], 1.9 nM.
The molecule `CC(=O)NC1CCN(CCCOc2cccc(-c3cccc(COc4cc(OCc5cncc(C#N)c5)c(CN(C)CC(C)c5nn[nH]n5)cc4Cl)c3C)c2C)CC1` (stereo not drawn) [Example 1047, N-(1-(3-((3′-((4-(((2-(2H-Tetrazol-5-yl)propyl)(methyl)amino)methyl)-2-chloro-5-((5-cyanopyridin-3-yl)methoxy)phenoxy)methyl)-2,2′-dimethyl-[1,1′-biphenyl]-3-yl)oxy)-propyl)piperidin-4-yl)acetamide] gave an IC50 of 2.4 nM.
As for `CC(=O)NC1CCN(CCCOc2cccc(-c3cccc(COc4cc(OCc5cncc(C#N)c5)c(CN5CCCCC5c5nnn[nH]5)cc4Cl)c3C)c2C)CC1` (stereo not drawn) [Example 1048, N-(1-(3-((3′-((4-((2-(1H-Tetrazol-5-yl)piperidin-1-yl)methyl)-2-chloro-5-((5-cyano-pyridin-3-yl)methoxy)phenoxy)methyl)-2,2′-dimethyl-[1,1′-biphenyl]-3-yl)oxy)propyl)-piperidin-4-yl)acetamide], the figure is 0.5 nM.
Take `CC(=O)NC1CCN(CCCOc2cccc(-c3cccc(COc4cc(OCc5cncc(C#N)c5)c(CNCCc5nnnn5C)cc4Cl)c3C)c2C)CC1` [Example 1049, N-(1-(3-((3′-((2-Chloro-5-((5-cyanopyridin-3-yl)methoxy)-4-(((2-(1-methyl-1H-tetrazol-5-yl)ethyl)amino)methyl)phenoxy)methyl)-2,2′-dimethyl-[1,1′-biphenyl]-3-yl)oxy)-propyl)piperidin-4-yl)acetamide]: the IC50 came out at 2.5 nM.
The value for `CC(=O)NC1CCN(CCCOc2cccc(-c3cccc(COc4cc(OCc5cncc(C#N)c5)c(CNCC(C)c5nnn[nH]5)cc4Cl)c3C)c2C)CC1` (stereo not drawn) [Example 1050, N-(1-(3-((3′-((4-(((2-(1H-Tetrazol-5-yl)propyl)amino)methyl)-2-chloro-5-((5-cyano-pyridin-3-yl)methoxy)phenoxy)methyl)-2,2′-dimethyl-[1,1′-biphenyl]-3-yl)oxy)propyl)-piperidin-4-yl)acetamide] was 0.7 nM.
Turning to `CC(=O)NC1CCN(CCCOc2cccc(-c3cccc(COc4cc(OCc5cncc(C#N)c5)c(CN5CCCC5c5nnn[nH]5)cc4Cl)c3C)c2C)CC1` (stereo not drawn) [Example 1051, N-(1-(3-((3′-((4-((2-(1H-Tetrazol-5-yl)pyrrolidin-1-yl)methyl)-2-chloro-5-((5-cyano-pyridin-3-yl)methoxy)phenoxy)methyl)-2,2′-dimethyl-[1,1′-biphenyl]-3-yl)oxy)propyl)-piperidin-4-yl)acetamide], the IC50 was 2.1 nM.
The value for `CC(=O)NC1CCN(CCCOc2cccc(-c3cccc(COc4cc(OCc5cncc(C#N)c5)c(CN5CCC(c6cnn(C)c6)C5)cc4Cl)c3C)c2C)CC1` (stereo not drawn) [Example 1052, N-(1-(3-((3′-((2-Chloro-5-((5-cyanopyridin-3-yl)methoxy)-4-((3-(1-methyl-1H-pyrazol-4-yl)pyrrolidin-1-yl)methyl)phenoxy)methyl)-2,2′-dimethyl-[1,1′-biphenyl]-3-yl)oxy)-propyl)piperidin-4-yl)acetamide] was 3.4 nM.
As for `CC(=O)NC1CCN(CCCOc2cccc(-c3cccc(COc4cc(OCc5cncc(C#N)c5)c(CN5CCCCC5c5cc[nH]n5)cc4Cl)c3C)c2C)CC1` (stereo not drawn) [Example 1053, N-(1-(3-((3′-((4-((2-(1H-Pyrazol-3-yl)piperidin-1-yl)methyl)-2-chloro-5-((5-cyano-pyridin-3-yl)methoxy)phenoxy)methyl)-2,2′-dimethyl-[1,1′-biphenyl]-3-yl)oxy)propyl)-piperidin-4-yl)acetamide], the figure is 7.6 nM; as for `CC(=O)NC1CCN(CCCOc2cccc(-c3cccc(COc4cc(OCc5cncc(C#N)c5)c(CN5CCCCC5c5cnn(C)c5)cc4Cl)c3C)c2C)CC1` (stereo not drawn) [Example 1054, N-(1-(3-((3′-((2-Chloro-5-((5-cyanopyridin-3-yl)methoxy)-4-((2-(1-methyl-1H-pyrazol-4-yl)piperidin-1-yl)methyl)phenoxy)methyl)-2,2′-dimethyl-[1,1′-biphenyl]-3-yl)oxy)-propyl)piperidin-4-yl)acetamide], 3 nM.
In turn, `CC(=O)NC1CCN(CCCOc2cccc(-c3cccc(COc4cc(OCc5cncc(C#N)c5)c(CN5CCCCC5c5nnn[nH]5)cc4Cl)c3C)c2Cl)CC1` (stereo not drawn) [Example 1055, N-(1-(3-((3′-((4-((2-(1H-Tetrazol-5-yl)piperidin-1-yl)methyl)-2-chloro-5-((5-cyano-pyridin-3-yl)methoxy)phenoxy)methyl)-2-chloro-2′-methyl-[1,1′-biphenyl]-3-yl)oxy)-propyl)-piperidin-4-yl)acetamide] gave an IC50 of 1.2 nM.
Regarding `CC(=O)NC1CCN(CCCOc2cccc(-c3cccc(COc4cc(OCc5cncc(C#N)c5)c(CNc5nnn[nH]5)cc4Cl)c3C)c2Cl)CC1` [Example 1056, N-(1-(3-((3′-((4-(((1H-Tetrazol-5-yl)amino)methyl)-2-chloro-5-((5-cyanopyridin-3-yl)-methoxy)phenoxy)methyl)-2-chloro-2′-methyl-[1,1′-biphenyl]-3-yl)oxy)propyl)piperidin-4-yl)acetamide], the IC50 stood at 1.8 nM.
As for `CC(=O)NC1CCN(CCCOc2cccc(-c3cccc(COc4cc(OCc5cncc(C#N)c5)c(CNCc5nnn[nH]5)cc4Cl)c3C)c2Cl)CC1` [Example 1057, N-(1-(3-((3′-((4-((((1H-Tetrazol-5-yl)methyl)amino)methyl)-2-chloro-5-((5-cyano-pyridin-3-yl)methoxy)phenoxy)methyl)-2-chloro-2′-methyl-[1,1′-biphenyl]-3-yl)oxy)-propyl)piperidin-4-yl)acetamide], the figure is 0.7 nM.

The record behind these values is patent US20240124417A1, “COMPOUNDS USEFUL AS IMMUNOMODULATORS” (Bristol-Myers Squibb Company, priority 2019, published 2024).
